These results are taken from patent publication US20250243196A1, “CITRON KINASE INHIBITORS” (The Cleveland Clinic Foundation, priority 2021, published 2025).

In this experiment the target is Citron kinase (Homo sapiens (Human), UniProt O14578). The experiment can be described thus: Radiometric citron kinase assay (Eurofins Cat #16-040KP). It is filed as biochemical. The note with it: mean of at least two independent assays; read-out: Radiometric CitK IC50. An excerpt: In some embodiments, the step of contacting the sample with the compound comprises administering the compound to a subject (e.g., a subject) suffering from cancer. Methods of determining kinase inhibition are well known in the art. For example, kinase activity of an enzyme and the inhibitory capacity of a test compound can be determined by measuring enzyme specific phosphorylation of a substrate. Commercial assays and kits can be employed. For example, kinase inhibition can be determined using a radiometric binding assay, such as using KinaseProfiler™ technology (Eurofins Discovery). This assay method directly detects product formation without the use of modified substrates or coupling enzymes. Test compounds are incubated with kinase, substrate, required cofactors and radioisotope labeled ATP. Following incubation, unreacted radioactive ATP is removed by washing and incorporation of the radiolabeled phosphate into the kinase substrate is assayed to detect phosphoryltransferase activity, which is directly proportional to the amount of phosphorylated substrate. Inhibition of the kinase by a kinase inhibitor prevents phosphorylation of the substrate and thereby limits the incorporation of radiolabeled phosphate. Such an assay is compatible with a microwell assay format, allowing simultaneous determination of IC50 of multiple compounds.
Citron kinase, sequence (O14578 whole entry): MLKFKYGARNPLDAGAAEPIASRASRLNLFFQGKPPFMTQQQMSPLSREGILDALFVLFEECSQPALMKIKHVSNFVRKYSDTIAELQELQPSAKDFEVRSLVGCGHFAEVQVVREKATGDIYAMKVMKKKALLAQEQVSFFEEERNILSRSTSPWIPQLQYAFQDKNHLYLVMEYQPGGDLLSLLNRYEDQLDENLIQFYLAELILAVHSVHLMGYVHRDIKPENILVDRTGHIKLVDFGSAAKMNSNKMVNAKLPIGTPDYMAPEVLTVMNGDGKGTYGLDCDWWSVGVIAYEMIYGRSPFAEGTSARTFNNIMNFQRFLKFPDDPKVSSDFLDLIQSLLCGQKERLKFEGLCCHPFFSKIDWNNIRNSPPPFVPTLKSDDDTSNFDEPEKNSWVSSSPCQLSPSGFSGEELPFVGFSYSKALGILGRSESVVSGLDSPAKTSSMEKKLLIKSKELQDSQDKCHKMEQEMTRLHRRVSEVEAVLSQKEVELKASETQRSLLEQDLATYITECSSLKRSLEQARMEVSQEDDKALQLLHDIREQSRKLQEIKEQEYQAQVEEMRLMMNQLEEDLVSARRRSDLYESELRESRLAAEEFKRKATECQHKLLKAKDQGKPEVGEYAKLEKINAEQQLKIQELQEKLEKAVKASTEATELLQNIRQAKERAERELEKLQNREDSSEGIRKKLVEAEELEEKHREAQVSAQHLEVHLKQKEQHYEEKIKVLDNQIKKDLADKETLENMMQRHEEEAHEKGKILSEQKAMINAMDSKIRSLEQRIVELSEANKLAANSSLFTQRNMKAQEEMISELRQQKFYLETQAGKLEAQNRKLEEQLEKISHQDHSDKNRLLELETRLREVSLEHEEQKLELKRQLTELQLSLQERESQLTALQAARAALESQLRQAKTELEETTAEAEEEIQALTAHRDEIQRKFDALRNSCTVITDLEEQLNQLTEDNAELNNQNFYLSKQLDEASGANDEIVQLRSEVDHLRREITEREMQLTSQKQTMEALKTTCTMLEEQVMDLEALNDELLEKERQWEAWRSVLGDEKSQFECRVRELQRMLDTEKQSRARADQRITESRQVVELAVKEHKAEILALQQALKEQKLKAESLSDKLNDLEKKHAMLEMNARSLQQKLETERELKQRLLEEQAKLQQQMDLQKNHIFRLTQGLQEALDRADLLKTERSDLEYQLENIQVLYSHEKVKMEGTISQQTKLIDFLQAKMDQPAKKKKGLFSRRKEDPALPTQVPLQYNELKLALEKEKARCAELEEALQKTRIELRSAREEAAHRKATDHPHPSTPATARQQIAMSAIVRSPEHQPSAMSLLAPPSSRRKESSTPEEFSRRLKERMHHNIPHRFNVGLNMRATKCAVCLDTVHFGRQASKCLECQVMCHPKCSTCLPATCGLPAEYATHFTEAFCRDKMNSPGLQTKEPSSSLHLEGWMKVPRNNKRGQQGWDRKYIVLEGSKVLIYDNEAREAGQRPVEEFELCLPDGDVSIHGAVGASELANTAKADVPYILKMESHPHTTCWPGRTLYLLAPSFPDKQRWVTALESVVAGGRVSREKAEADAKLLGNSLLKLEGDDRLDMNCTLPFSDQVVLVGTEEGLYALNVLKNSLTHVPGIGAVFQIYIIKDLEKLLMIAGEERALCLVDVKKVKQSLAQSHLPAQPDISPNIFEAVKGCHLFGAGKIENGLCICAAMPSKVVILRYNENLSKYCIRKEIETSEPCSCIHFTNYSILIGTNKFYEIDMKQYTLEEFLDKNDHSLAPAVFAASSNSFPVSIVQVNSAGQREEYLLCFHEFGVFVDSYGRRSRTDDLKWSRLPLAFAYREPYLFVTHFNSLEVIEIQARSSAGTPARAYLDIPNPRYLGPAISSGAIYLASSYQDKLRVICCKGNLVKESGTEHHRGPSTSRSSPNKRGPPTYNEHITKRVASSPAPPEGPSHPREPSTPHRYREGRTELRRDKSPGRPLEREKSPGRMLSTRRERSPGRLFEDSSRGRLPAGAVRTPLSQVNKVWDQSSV
Compounds were screened for biochemical kinase activity (Eurofins Discovery, France) using one of two assays. […] All values in Table 1 are the mean of at least two independent assays.
For `Cc1cc2c(-c3ccc(NC(=O)[C@H](N)Cc4ccccc4)cc3)ccnc2[nH]1` [Compound F-92, (2R)-2-Amino-N-[4-(2-methyl-1H-pyrrolo[2,3-b]pyridin-4-yl)phenyl]-3-phenyl-propanamide], the IC50 came to 415 nM.

Regarding `CCc1cc(NC(=O)[C@H](N)C(C)(C)C)ccc1-c1ccnc2[nH]c(C)cc12` [Compound F-93, (2R)-2-Amino-N-[3-ethyl-4-(2-methyl-1H-pyrrolo[2,3-b]pyridin-4-yl)phenyl]-3,3-dimethyl-butanamide], the IC50 is 121 nM.

Turning to `CN[C@H](CC(C)C)C(=O)Nc1ccc(-c2ccnc3[nH]c(C)cc23)cc1` [Compound F-94, (2R)-4-Methyl-2-(methylamino)-N-[4-(2-methyl-1H-pyrrolo[2,3-b]pyridin-4-yl)phenyl]pentanamide], the IC50 amounted to 43.7 nM.

On to `Cc1cc2c(-c3ccc(NC(=O)[C@H](N)CC(C)C)nc3C)ccnc2[nH]1` [Compound F-95, (2R)-2-Amino-4-methyl-N-[6-methyl-5-(2-methyl-1H-pyrrolo[2,3-b]pyridin-4-yl)-2-pyridyl]pentanamide], for which the IC50 is 240 nM.

Consider `Cc1cc2c(-c3ncc(NC(=O)[C@H](N)CC(C)(C)C)cc3C)ccnc2[nH]1` [Compound F-96, (2R)-2-Amino-4,4-dimethyl-N-[5-methyl-6-(2-methyl-1H-pyrrolo[2,3-b]pyridin-4-yl)-3-pyridyl]pentanamide], for which the IC50 is 96.9 nM.

As for `Cc1cc2c(-c3ccc(NC(=O)[C@H](N)CC(C)(C)C)cc3C(F)F)ccnc2[nH]1` [Compound F-97, (2R)-2-Amino-N-[3-(difluoromethyl)-4-(2-methyl-1H-pyrrolo[2,3-b]pyridin-4-yl)phenyl]-4,4-dimethyl-pentanamide], the half-inhibitory concentration (IC50) amounted to 29.3 nM.

As for `Cc1cc(NC(=O)[C@H](N)CC(C)C)ccc1-c1ccnc2[nH]c(C(F)(F)F)cc12` [Compound F-98, (2R)-2-Amino-4-methyl-N-[3-methyl-4-[2-(trifluoromethyl)-1H-pyrrolo[2,3-b]pyridin-4-yl]phenyl]pentanamide], the IC50 was 30.4 nM.

On to `Cc1cc(NC(=O)[C@H](N)CC(C)(C)C)ccc1-c1ccnc2[nH]c(C(F)(F)F)cc12` [Compound F-99, (2R)-2-Amino-4,4-dimethyl-N-[3-methyl-4-[2-(trifluoromethyl)-1H-pyrrolo[2,3-b]pyridin-4-yl]phenyl]pentanamide], for which the IC50 stood at 103 nM.

Consider `Cc1cc(NC(=O)[C@H](N)C(C)(C)C)ccc1-c1ccnc2[nH]c(C(F)(F)F)cc12` [Compound F-100, (2R)-2-Amino-3,3-dimethyl-N-[3-methyl-4-[2-(trifluoromethyl)-1H-pyrrolo[2,3-b]pyridin-4-yl]phenyl]butanamide], for which the IC50 is 380 nM.

Turning to `Cc1cc(NC(=O)[C@H](N)CC(C)C)ccc1-c1ccnc2[nH]c(C(F)F)cc12` [Compound F-101, (2R)-2-Amino-N-[4-[2-(difluoromethyl)-1H-pyrrolo[2,3-b]pyridin-4-yl]-3-methyl-phenyl]-4-methyl-pentanamide], the IC50 was 18.1 nM.

Take `Cc1cc(NC(=O)[C@H](N)CC(C)(C)C)ccc1-c1ccnc2[nH]c(C(F)F)cc12` [Compound F-102, (2R)-2-Amino-N-[4-[2-(difluoromethyl)-1H-pyrrolo[2,3-b]pyridin-4-yl]-3-methyl-phenyl]-4,4-dimethyl-pentanamide]: the IC50 turned out to be 11.7 nM.

`Cc1cc(NC(=O)[C@H](N)C(C)(C)C)ccc1-c1ccnc2[nH]c(C(F)F)cc12` [Compound F-103, (2R)-2-Amino-N-[4-[2-(difluoromethyl)-1H-pyrrolo[2,3-b]pyridin-4-yl]-3-methyl-phenyl]-3,3-dimethyl-butanamide]: the IC50 was 68.1 nM.

In the case of `CC(C)(C)C[C@@H](N)C(=O)Nc1ccc(-c2ccnc3[nH]c(C(F)(F)F)cc23)nc1` [Compound F-104, (2R)-2-Amino-4,4-dimethyl-N-[6-[2-(trifluoromethyl)-1H-pyrrolo[2,3-b]pyridin-4-yl]-3-pyridyl]pentanamide], the half-inhibitory concentration (IC50) turned out to be 418 nM.

On to `CC(C)(C)C[C@@H](N)C(=O)Nc1ccc(-c2ccnc3[nH]c(C(F)F)cc23)nc1` [Compound F-105, (2R)-2-Amino-N-[6-[2-(difluoromethyl)-1H-pyrrolo[2,3-b]pyridin-4-yl]-3-pyridyl]-4,4-dimethyl-pentanamide], for which the IC50 worked out at 266 nM.

As to `Cc1cnc2[nH]ccc2c1-c1ccc(NC(=O)[C@H](N)C(C)(C)C)cc1` [Compound F-107, (2R)-2-Amino-3,3-dimethyl-N-[4-(5-methyl-1H-pyrrolo[2,3-b]pyridin-4-yl)phenyl]butanamide], the IC50 was found to be 371 nM.

Consider `CC(C)(C)[C@@H](N)C(=O)Nc1nc(-c2ccnc3[nH]ccc23)cs1` [Compound F-111, (2R)-2-Amino-3,3-dimethyl-N-[4-(1H-pyrrolo[2,3-b]pyridin-4-yl)thiazol-2-yl]butanamide], for which the IC50 was found to be 29.6 nM.

As to `Cc1cc2c(-c3csc(NC(=O)[C@H](N)C(C)(C)C)n3)ccnc2[nH]1` [Compound F-112, (2R)-2-Amino-3,3-dimethyl-N-[4-(2-methyl-1H-pyrrolo[2,3-b]pyridin-4-yl)thiazol-2-yl]butanamide], the IC50 was 122 nM.

As for `Cc1cc2c(-c3csc(NC(=O)[C@@H](N)C(C)(C)C)n3)ccnc2[nH]1` [Compound F-113, (2S)-2-Amino-3,3-dimethyl-N-[4-(2-methyl-1H-pyrrolo[2,3-b]pyridin-4-yl)thiazol-2-yl]butanamide], the half-inhibitory concentration (IC50) stood at 111 nM.

For `Cc1cc2c(-c3csc(NC(=O)[C@H](N)C(C)C)n3)ccnc2[nH]1` [Compound F-114, (2R)-2-Amino-3-methyl-N-[4-(2-methyl-1H-pyrrolo[2,3-b]pyridin-4-yl)thiazol-2-yl]butanamide], the IC50 is 244 nM.

Take `Cc1cc2c(-c3csc(NC(=O)C(N)C4(C(F)(F)F)CC4)n3)ccnc2[nH]1` (centres unmarked) [Compound F-115, 2-Amino-N-[4-(2-methyl-1H-pyrrolo[2,3-b]pyridin-4-yl)thiazol-2-yl]-2-[1-(trifluoromethyl)cyclopropyl]acetamide]: the IC50 stood at 129 nM.

Regarding `Cc1cc2c(-c3csc(NC(=O)[C@H](N)CC(C)C)n3)ccnc2[nH]1` [Compound F-116, (2R)-2-Amino-4-methyl-N-[4-(2-methyl-1H-pyrrolo[2,3-b]pyridin-4-yl)thiazol-2-yl]pentanamide], the IC50 amounted to 368 nM.

As for `Cc1cc2c(-c3nc(NC(=O)[C@H](N)C(C)(C)C)sc3C)ccnc2[nH]1` [Compound F-117, (2R)-2-Amino-3,3-dimethyl-N-[5-methyl-4-(2-methyl-1H-pyrrolo[2,3-b]pyridin-4-yl)thiazol-2-yl]butanamide], the IC50 amounted to 3000 nM.

In the case of `Cc1cc(NC(=O)[C@H](N)Cc2ccccc2)ccc1-c1ccnc2[nH]ccc12` [Compound F-127, (2R)-2-Amino-N-[3-methyl-4-(1H-pyrrolo[2,3-b]pyridin-4-yl)phenyl]-3-phenyl-propanamide], the IC50 stood at 144 nM.

With `COc1cc(NC(=O)[C@H](N)Cc2ccccc2)ccc1-c1ccnc2[nH]ccc12` [Compound F-128, (2R)-2-Amino-N-[3-methoxy-4-(1H-pyrrolo[2,3-b]pyridin-4-yl)phenyl]-3-phenyl-propanamide], the IC50 was 598 nM.

For the compound `N[C@@H](Cc1ccccc1)C(=O)Nc1ccc(-c2ccnc3[nH]ccc23)c(C(F)(F)F)c1` [Compound F-129, (2S)-2-Amino-3-phenyl-N-[4-(1H-pyrrolo[2,3-b]pyridin-4-yl)-3-(trifluoromethyl)phenyl]propanamide], the IC50 came to 3000 nM.

With `N[C@H](Cc1ccccc1)C(=O)Nc1ccc(-c2ccnc3[nH]ccc23)c(C(F)(F)F)c1` [Compound F-130, (2R)-2-Amino-3-phenyl-N-[4-(1H-pyrrolo[2,3-b]pyridin-4-yl)-3-(trifluoromethyl)phenyl]propanamide], the IC50 was 1420 nM.

For the compound `COc1cc(-c2ccnc3[nH]ccc23)ccc1NC(=O)[C@H](N)Cc1ccccc1` [Compound F-131, (2R)-2-Amino-N-[2-methoxy-4-(1H-pyrrolo[2,3-b]pyridin-4-yl)phenyl]-3-phenyl-propanamide], the IC50 came to 301 nM.

On to `Cc1cc(-c2ccnc3[nH]ccc23)ccc1NC(=O)[C@H](N)Cc1ccccc1` [Compound F-132, (2R)-2-Amino-N-[2-methyl-4-(1H-pyrrolo[2,3-b]pyridin-4-yl)phenyl]-3-phenyl-propanamide], for which the IC50 was 237 nM.

Consider `N[C@H](Cc1ccccc1)C(=O)Nc1ccc(-c2ccnc3[nH]ccc23)cc1Cl` [Compound F-133, (2R)-2-Amino-N-[2-chloro-4-(1H-pyrrolo[2,3-b]pyridin-4-yl)phenyl]-3-phenyl-propanamide], for which the IC50 was 557 nM.

With `N[C@H](Cc1ccccc1)C(=O)Nc1cccc(-c2ccnc3[nH]ccc23)c1` [Compound F-134, (2R)-2-Amino-3-phenyl-N-[3-(1H-pyrrolo[2,3-b]pyridin-4-yl)phenyl]propanamide], the concentration for half-maximal inhibition (IC50) was determined as 64.1 nM.

Turning to `CCc1c[nH]c2nccc(-c3ccc(NC(=O)[C@H](N)Cc4ccccc4)cc3)c12` [Compound F-136, (2R)-2-Amino-N-[4-(3-ethyl-1H-pyrrolo[2,3-b]pyridin-4-yl)phenyl]-3-phenyl-propanamide], the IC50 was found to be 1260 nM.

Turning to `Cc1c(-c2ccnc3[nH]ccc23)ccc(NC(=O)[C@H](N)C(C)(C)C)c1F` [Compound F-137, (2R)-2-Amino-N-[2-fluoro-3-methyl-4-(1H-pyrrolo[2,3-b]pyridin-4-yl)phenyl]-3,3-dimethyl-butanamide], the IC50 is 23.1 nM.
